The subject of this assay is HBV. Put plainly: HBV-DNA Antiviral Assay Using HepG2.117 Cells (intracellular HBV DNA by qPCR). The note with it: Hepatitis B virus, HepG2.117. Type of assay: cell-based, hepatitis B virus (genotype D). The essentials:
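HepG2.117 cells (genotype D HBV, Tet-off) were induced by doxycycline withdrawal and treated for 3 days with 9 concentrations in 4-fold dilution, 2% DMSO final. Intracellular HBV DNA was measured by qPCR against a standard curve, with ATPlite viability read in parallel. EC50, EC90 and CC50 came from fits against the DMSO control.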
In general terms: In qPCR the cycle at which signal appears reflects the starting amount.

Turning to `C[C@H]1Cn2c(c(C(=O)NCc3ccccc3-n3cccn3)n(-c3ccc(OC4CC4)cc3)c2=O)CN1C(=O)c1ccc(Br)c(Cl)c1` (stereo in doubt) [Example 438, rac-(6S)-7-(4-bromo-3-chloro-benzoyl)-2-[4-(cyclopropoxy)phenyl]-6-methyl-3-oxo-N-[(2-pyrazol-1-ylphenyl)methyl]-6,8-dihydro-5H-imidazo[1,5-a]pyrazine-1-carboxamide], the EC50 (usually the concentration needed to bring the measured effect to its halfway point) is under 100 nM.

Consider `CC(C)Oc1ccc(-n2c(C(=O)NCc3ccccc3)c3n(c2=O)CCN([C@H](c2ccc(Br)c(Cl)c2)C(F)(F)F)C3)cc1` (racemic) [Example 240, N-benzyl-2-(4-isopropoxyphenyl)-3-oxo-7-[rac-(1R)-1-(4-bromo-3-chloro-phenyl)-2,2,2-trifluoro-ethyl]-6,8-dihydro-5H-imidazo[1,5-a]pyrazine-1-carboxamide], for which the EC50 was over 5000 nM.

With `COc1ccc(-n2c(C(=O)N[C@H](c3ccccc3)C(F)(F)F)c3n(c2=O)CCN(C(=O)c2ccc(Br)c(Cl)c2)C3)cc1` (stereo in doubt) [Example 208, 7-(4-bromo-3-chloro-benzoyl)-2-(4-methoxyphenyl)-3-oxo-N-[rac-(1R)-2,2,2-trifluoro-1-phenyl-ethyl]-6,8-dihydro-5H-imidazo[1,5-a]pyrazine-1-carboxamide], the EC50 was in the range of 100 to 500 nM.

The compound `COc1ccc([C@H](C)NC(=O)c2c3n(c(=O)n2-c2ccc(OC4CC4)cc2)CC(C)N(C(=O)c2ccc(Br)c(Cl)c2)C3)cc1` (mixture of isomers) [Example 437, (6RS)-7-(4-bromo-3-chloro-benzoyl)-2-[4-(cyclopropoxy)phenyl]-N-[(1S)-1-(4-methoxyphenyl)ethyl]-6-methyl-3-oxo-6,8-dihydro-5H-imidazo[1,5-a]pyrazine-1-carboxamide] returned a half-maximal effective concentration (EC50) of 500 to 5000 nM.

Compound `CCS(=O)(=O)c1cccc(CNC(=O)c2c3n(c(=O)n2-c2ccc(OC(C)C)cc2)CCN(C(=O)c2ccc(Br)c(Cl)c2)C3)c1` [Example 186, 7-(4-bromo-3-chloro-benzoyl)-N-[(3-ethylsulfonylphenyl)methyl]-2-(4-isopropoxyphenyl)-3-oxo-6,8-dihydro-5H-imidazo[1,5-a]pyrazine-1-carboxamide] registered a 50% effective concentration (EC50) of 500 to 5000 nM.

Turning to `Cc1coc2ccc(-n3c(C(=O)NCc4ccccc4)c4n(c3=O)CCN(C(=O)c3ccc(Br)c(Cl)c3)C4)cc12` [Example 276], the EC50 lay within 100 to 500 nM.

`COc1ccc(-n2c(C(=O)N[C@H](C)c3ccccc3)c3n(c2=O)CCN(C(=O)c2ccc(Br)c(Cl)c2)C3)cc1` (stereo in doubt) [Example 82, 7-(4-bromo-3-chloro-benzoyl)-2-(4-methoxyphenyl)-3-oxo-N-[rac-(1R)-1-phenylethyl]-6,8-dihydro-5H-imidazo[1,5-a]pyrazine-1-carboxamide] yielded a concentration for a half-maximal effect (EC50) of 100 to 500 nM.

In the case of `COc1ccc(CNC(=O)c2c3n(c(=O)n2-c2ccccc2)CCN(C(=O)c2ccc(Br)c(Cl)c2)C3)c(F)c1` [Example 40, 7-(4-bromo-3-chloro-benzoyl)-N-[(2-fluoro-4-methoxy-phenyl)methyl]-3-oxo-2-phenyl-6,8-dihydro-5H-imidazo[1,5-a]pyrazine-1-carboxamide], the EC50 fell in the range of 100 to 500 nM.

Compound `N#Cc1cc(C(=O)N2CCn3c(c(C(=O)NCc4ccccc4-c4ncccn4)n(-c4ccc(-n5cccn5)cc4)c3=O)C2)ccc1Br` [Example 426, 7-(4-bromo-3-cyano-benzoyl)-3-oxo-2-(4-pyrazol-1-ylphenyl)-N-[(2-pyrimidin-2-ylphenyl)methyl]-6,8-dihydro-5H-imidazo[1,5-a]pyrazine-1-carboxamide] had a concentration giving a half-maximal response (EC50) of 100 to 500 nM.

`COc1ccc(CNC(=O)c2c3n(c(=O)n2-c2ccc(OCC(F)(F)F)cc2)CCN(C(=O)c2ccc(Br)c(Cl)c2)C3)c(-n2cccn2)c1` [Example 258, 7-(4-bromo-3-chloro-benzoyl)-N-[(4-methoxy-2-pyrazol-1-yl-phenyl)methyl]-3-oxo-2-[4-(2,2,2-trifluroethoxy)phenyl]-6,8-dihydro-5H-imidazo[1,5-a]pyrazine-1-carboxamide] yielded an EC50 of under 100 nM.

`O=C(NCc1ccccc1)c1c2n(c(=O)n1-c1ccccc1)CCN(C(=O)c1ccc(Br)c(Cl)c1)C2` [Example 195, N-benzyl-7-(4-bromo-3-chloro-benzoyl)-3-oxo-2-phenyl-6,8-dihydro-5H-imidazo[1,5-a]pyrazine-1-carboxamide]: the EC50 fell in the range of 500 to 5000 nM.

On to `COc1ccc([C@@H](C)NC(=O)c2c3n(c(=O)n2-c2ccc(-n4cccn4)cc2)CCN(C(=O)c2ccc(Br)c(Cl)c2)C3)cc1` [Example 454, 7-(4-bromo-3-chloro-benzoyl)-N-[(1R)-1-(4-methoxyphenyl)ethyl]-3-oxo-2-(4-pyrazol-1-ylphenyl)-6,8-dihydro-5H-imidazo[1,5-a]pyrazine-1-carboxamide], for which the EC50 fell in the range of 100 to 500 nM.

`O=C(NCc1ccccc1)c1c2n(c(=O)n1-c1cccc(Cl)c1)CCN(C(=O)c1ccc(Br)c(Cl)c1)C2` [Example 29, N-benzyl-7-(4-bromo-3-chloro-benzoyl)-2-(3-chlorophenyl)-3-oxo-6,8-dihydro-5H-imidazo[1,5-a]pyrazine-1-carboxamide] displayed an EC50 of 500 to 5000 nM.

On to `COc1ccc(CNC(=O)c2c3n(c(=O)n2-c2ccc(OCC(F)(F)F)cc2)CCN(C(=O)c2ccc(Br)c(Cl)c2)C3)c(OC(F)F)c1` [Example 266], for which the 50% effective concentration (EC50) lay in the range of 100 to 500 nM.

`COc1ccc([C@@H](C)NC(=O)c2c3n(c(=O)n2-c2ccc(OC4CC4)cc2)C[C@H](C)N(C(=O)c2ccc(Br)c(Cl)c2)C3)cc1` (racemic) [Example 450, (6SR)-7-(4-bromo-3-chloro-benzoyl)-2-[4-(cyclopropoxy)phenyl]-N-[(1R)-1-(4-methoxyphenyl)ethyl]-6-methyl-3-oxo-6,8-dihydro-5H-imidazo[1,5-a]pyrazine-1-carobxamide] returned an EC50 of under 100 nM.

As for `COc1ccc(-n2c(C(=O)N[C@H]3CCc4cc(OC)ccc43)c3n(c2=O)CCN(C(=O)c2ccc(Br)c(Cl)c2)C3)cc1` (stereo in doubt) [Example 100, 7-(4-bromo-3-chloro-benzoyl)-2-(4-methoxyphenyl)-3-oxo-N-[rac-(1S)-5-methoxyindazin-1-yl]-6,8-dihydro-5H-imidazo[1,5-a]pyrazine-1-carboxamide], the EC50 was in the range of 100 to 500 nM.

For `Cc1ccnn1-c1ccc(-n2c(C(=O)NCc3ccccc3)c3n(c2=O)CCN(C(=O)c2ccc(Br)c(Cl)c2)C3)cc1` [Example 456, N-benzyl-7-(4-bromo-3-chloro-benzoyl)-2-[4-(5-methylpyrazol-1-yl)phenyl]-3-oxo-6,8-dihydro-5H-imidazo[1,5-a]pyrazine-1-carboxamide], the concentration giving a half-maximal response (EC50) was in the range of 500 to 5000 nM.

Consider `C[C@H](NC(=O)c1c2n(c(=O)n1-c1ccc(OCC(F)(F)F)cc1)CCN(C(=O)c1ccc(Br)c(Cl)c1)C2)c1ccc(O[C@H](C)C(N)=O)cc1F` (stereo in doubt) [Example 361, 7-(4-bromo-3-chloro-benzoyl)-3-oxo-N-[rac-(1S)-1-[2-fluoro-4-[rac-(1R)-2-amino-1-methyl-2-oxo-ethoxy]phenyl]ethyl]-2-[4-(2,2,2-trifluoroethoxy)phenyl]-6,8-dihydro-5H-imidazo[1,5-a]pyrazine-1-carboxamide], for which the concentration giving a half-maximal response (EC50) is 100 to 500 nM.

As to `COc1ccc(CN2Cc3c4n(c(=O)n3C[C@@H](O)C2)CCN(C(=O)c2ccc(Br)c(Cl)c2)C4)c(F)c1` (stereo in doubt) [Example 289, rac-(11S)-4-(4-bromo-3-chloro-benzoyl)-13-[(2-fluoro-4-methoxy-phenyl)methyl]-11-hydroxy-4,7,9,13-tetrazatricyclo[7,5.0.0^2,7]tetradec-1-ene-8,14-dione], the EC50 lay in the range of 100 to 500 nM.

Turning to `C[C@@H](NC(=O)c1c2n(c(=O)n1-c1ccc(OC3CC3)cc1)CCN(C(=O)c1ccc(Br)c(Cl)c1)C2)c1ccc(OC(C)(C)C(N)=O)cc1F` (stereo in doubt) [Example 339, 7-(4-bromo-3-chloro-benzoyl)-2-[4-(cyclopropoxy)phenyl]-3-oxo-N-[rac-(1R)-1-[4-(2-amino-1,1-dimethyl-2-oxo-ethoxy)-2-fluoro-phenyl]ethyl]-6,8-dihydro-5H-imidazo[1,5-a]pyrazine-1-carboxamide], the EC50 was 100 to 500 nM.

`CC(NC(=O)c1c2n(c(=O)n1-c1ccc(OC3CC3)cc1)CCN(C(=O)c1ccc(Br)c(Cl)c1)C2)c1ccc(C#N)cc1F` (racemic) [Example 340, 7-(4-bromo-3-chloro-benzoyl)-2-[4-(cyclopropoxy)phenyl]-3-oxo-N-[rac-(1S)-1-(4-cyano-2-fluoro-phenyl)ethyl]-6,8-dihydro-5H-imidazo[1,5-a]pyrazine-1-carboxamide] returned a concentration giving a half-maximal response (EC50) of 100 to 500 nM.

Take `O=C(NCc1ccccc1)c1c2n(c(=O)n1-c1ccc3sccc3c1)CCN(C(=O)c1ccc(Br)c(Cl)c1)C2` [Example 248]: the EC50 lay within 100 to 500 nM.

Take `COc1ccc([C@H](C)NC(=O)c2c3n(c(=O)n2-c2ccc(OC4CC4)cc2)CCN(C(=O)c2ccc(Br)c(Cl)c2)C3)cc1` [Example 443, 7-(4-bromo-3-chloro-benozyl)-2-[4-(cyclopropoxy)phenyl]-N-[(1S)-1-(4-methoxyphenyl)ethyl]-3-oxo-6,8-dihydro-5H-imidazo[1,5-a]pyrazine-1-carboxamide]: the EC50 was in the range of 100 to 500 nM.

With `C[C@@H]1Cn2c(c(C(=O)NCc3ccccc3-n3cc(F)cn3)n(-c3ccc(OC4CC4)cc3)c2=O)CN1C(=O)c1ccc(Br)c(Cl)c1` (racemic) [Example 441, rac-(6R)-7-(4-bromo-3-chloro-benzoyl)-2-[4-(cyclopropxy)phenyl]-N-[[2-(4-fluoropyrazol-1-yl)phenyl]methyl]-6-methyl-3-oxo-6,8-dihydro-5H-imidazo[1,5-a]pyrazine-1-carboxamide], the concentration giving a half-maximal response (EC50) fell in the range of 100 to 500 nM.

Compound `COc1ccc(-n2c(-c3ccccc3)c3n(c2=O)CCN(C(=O)c2ccc(Cl)c(Cl)c2)C3)cc1` [Example 74, 7-(3,4-dichlorobenzoyl)-2-(4-methoxyphenyl)-1-phenyl-6,8-dihydro-5H-imidazo[1,5-a]pyrazin-3-one] returned a half-maximal effective concentration (EC50) of over 5000 nM.

The values are drawn from patent US11591341B2 (ALIGOS THERAPEUTICS, INC., priority 2019, dated 2023).
